In patent publication US11396535B2, “Cyclic peptide analogs of melanocortin and amanitin and methods of making such” (THE UNIVERSITY OF BRITISH COLUMBIA, priority 2019, dated 2022):
Starred links: 1 amine or outer side, 2 acyl side, 3 side chain; linkers in the order of their positions; H or OH if unused. Positions of bridges follow the written chain, without caps; N, C: chain ends. Non-standard residues stand in square brackets, D forms with d. Residues, ends and D or L forms follow the SMILES beside them. ξ: configuration not given here. Ile(4R-OH,5-OH) = C[C@H]([C@H](N)C(=O)O)[C@@H](O)CO; X1 = O=C([C@H](Cn1cc2ccccc2c1[*:3])N[*:1])[*:2]; Hyp = O=C(O)[C@@H]1C[C@@H](O)CN1; Dap = NC[C@H](N)C(=O)O; ξC = NC(CS)C(=O)O

What was measured:
[1] = tested on: CHO cells; type: cell-based; settings: for toxicity (cytotoxicity): triplicate
Method: FIG. 6: Cytotoxicity assays—CHO cells were incubated with α-amanitin, the monocyclic octapeptide precursor and the FlICk-amanitin-1 for 72 h in triplicate and cell viability was assessed by spectrophotometry with MTT indicator.
FIGS. 11A-11B: MTT cell viability assay against CHO cells: (A) alpha-amanitin; (B) FlICk-amanitin.
Both FlICk amanitin and authentic α-amanitin (purchased from Sigma Aldrich) were dissolved in H2O. The FlICk amanitin concentrations used were 100 μM, 20 μM, 4 μM, 0.8 μM, 0.16 μM, 0.032 μM, 0.0064 μM, 0.00128 μM. The α-amanitin concentrations used were 10 μM, 2 μM, 0.4 μM, 0.08 μM, 0.016 μM, 0.0032 μM, 0.00064 μM, 0.000128 μM, 0.0000256 μM. The cell culture and MTT assay procedures were carried out as per our report on the total synthesis of α-amanitin^38. The MTT assays were run in triplicate. The IC50 assay curves were produced using Prism Software.

[2] = target: melanocortin receptors; settings: literature value; cited from earlier work
[3] = tested on: CHO cells; settings: literature value, read-out: IC50 (cytotoxic to CHO cells); cited from earlier work

For CC[C@H](C)[C@@H]1NC(=O)CNC(=O)[C@@H]2Cn3cc4ccccc4c3SCC(NC(=O)CNC1=O)C(=O)N[C@@H](CC(N)=O)C(=O)N1C[C@H](O)C[C@H]1C(=O)N[C@@H]([C@@H](C)[C@@H](O)CO)C(=O)N2 [FlICk-amanitin-1] (cyclo(GIG[ξC]N[Hyp][Ile(4R-OH,5-OH)][X1]); thioether 4-8), the “fold less toxic than α-amanitin” value ([1]; 72 h, MTT) was “approximately 100 fold”, the “toxicity (cytotoxicity)” value ([1]; 72 h, MTT) was “detectable toxicity” and the “fold less toxic than dideoxy-amanitin” value ([1]; versus dideoxy-amanitin IC50 of 2 μM) was 20 fold.

In the case of CC[C@H](C)[C@@H]1NC(=O)CNC(=O)[C@H](CN)NC(=O)[C@H]([C@@H](C)[C@@H](O)CO)NC(=O)[C@@H]2C[C@@H](O)CN2C(=O)[C@H](CC(N)=O)NC(=O)[C@H](CS)NC(=O)CNC1=O [monocyclic octapeptide precursor, Cyclo-[DhIle-Dap-Gly-Ile-Gly-Cys-Asn-Hyp]] (cyclo(CN[Hyp][Ile(4R-OH,5-OH)][Dap]GIG)), the “toxicity (cytotoxicity)” value ([1]; 72 h, MTT) is reported as “no detectable toxicity”.

For “N-Acetyl-L-norleucyl-L-α-aspartyl-L-histidyl-D-phenylalanyl-L-arginyl-L-tryptophyl-L-lysinamide (2→7)-lactam [Melanotan-II]”, the Kd [2] is listed as about 0.001 µM.

For α-amanitin, the IC50 [3] is listed as about 0.5 µM.
